For assay [1], the target named is T1, Glucocorticoid Receptor (GR) (Homo sapiens, UniProt P04150).
T1 construct: purchased Invitrogen P2893
T1 sequence (P04150 1-777): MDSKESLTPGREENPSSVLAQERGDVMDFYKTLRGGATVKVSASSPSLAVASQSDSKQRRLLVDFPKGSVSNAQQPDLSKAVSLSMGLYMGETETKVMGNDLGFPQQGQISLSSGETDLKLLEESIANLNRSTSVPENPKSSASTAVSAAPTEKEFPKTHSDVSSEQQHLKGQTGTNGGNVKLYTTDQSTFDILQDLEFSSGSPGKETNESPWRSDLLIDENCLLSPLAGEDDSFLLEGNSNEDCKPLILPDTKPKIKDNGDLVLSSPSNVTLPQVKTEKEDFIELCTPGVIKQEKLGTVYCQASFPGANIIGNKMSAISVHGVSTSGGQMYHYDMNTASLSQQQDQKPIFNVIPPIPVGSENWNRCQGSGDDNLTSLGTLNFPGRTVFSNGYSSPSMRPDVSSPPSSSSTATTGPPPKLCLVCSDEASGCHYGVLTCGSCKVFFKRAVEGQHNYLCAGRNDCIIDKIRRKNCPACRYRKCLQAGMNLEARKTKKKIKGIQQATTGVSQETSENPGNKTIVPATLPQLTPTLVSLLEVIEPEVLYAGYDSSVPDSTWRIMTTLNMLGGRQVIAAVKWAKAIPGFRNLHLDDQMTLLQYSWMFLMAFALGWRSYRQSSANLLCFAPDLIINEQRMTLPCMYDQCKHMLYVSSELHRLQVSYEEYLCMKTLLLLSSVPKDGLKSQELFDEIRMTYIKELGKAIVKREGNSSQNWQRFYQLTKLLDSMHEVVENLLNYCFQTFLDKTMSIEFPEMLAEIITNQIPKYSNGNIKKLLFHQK
Kind of assay: GR Fluorescence Polarization Assay (PolarScreen Glucocorticoid Receptor Competitor Assay, Red). The settings on record: fluorescence polarization binding ranges. A digest of the protocol:
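Compound displacement of a red-labelled glucocorticoid from GR, read as fluorescence polarization. Tracer, receptor and 1:4-serially diluted compound were left together overnight at 4° C in the kit assay buffer.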
(In general: In fluorescence polarisation assays a small probe gives low polarisation when free and higher when bound to something large.)

In a further assay the test system is IL-6. As to the kind of experiment: A549 Cell Assay to Measure Inflammation Markers (inhibition of IL-1β-induced IL-6). The settings on record: A549 cells, read-out: A549 cell assay. In kind it is cell-based. A digest of the protocol:
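A549 cells pre-incubated 1 h with compound (10-point dilution, 0.1% DMSO final) in charcoal-stripped serum medium, then stimulated 4 h with 1 ng/mL IL-1β at 37° C. Supernatant IL-6 measured by MSD immunoassay; IC50 and Emax relative to 1 μM prednisolone as 100% inhibition; viability checked by CellTiter-Glo.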

Read-outs that look alike come from different tables or passages of the source. Some results are limits rather than exact numbers.

As for `COC[C@@]1(O)CC[C@@]2(Cc3ccccn3)c3cc4cnn(-c5ccc(F)cc5)c4nc3CCC[C@@H]2C1` [Example 156], the IC50 (in assay [1]; in the assay with IL-6) was less than 100 nM throughout.
Consider `COC[C@@]1(O)CC[C@@]2(Cc3ncccn3)c3cc4cnn(-c5ccc(F)cc5)c4nc3CCC[C@H]2C1` [Example 158], for which the IC50 (in assay [1]; with IL-6) was less than 100 nM each time.
As for `N#CC[C@]1(O)CC[C@]2(Cc3ncccn3)c3cc4cnn(-c5ccc(F)cc5)c4nc3CCC[C@@H]2C1` [Example 160], the IC50 (in assay [1]; in the assay with IL-6) was less than 100 nM each time.
With `C[C@]1(O)CC[C@]2(Cc3ncccn3)c3cc4cnn(-c5ccc(F)cc5)c4nc3CCC[C@@H]2C1` [Example 162], the IC50 was in the range of 100 to 1000 nM in assay [1] and 1000 to 10000 nM in the assay with IL-6.
The matching figures for `N#CC[C@@]1(O)CC[C@@]2(Cc3ccccn3)c3cc4cnn(-c5ccc(F)cc5)c4nc3CCC[C@H]2C1` [Example 163]: less than 100 nM and less than 100 nM.
The matching figures for `N#CC[C@@]1(O)CC[C@@]2(Cc3ncccn3)c3cc4cnn(-c5ccc(F)cc5)c4nc3CCC[C@H]2C1` [Example 165]: less than 100 nM and less than 100 nM.
For the compound `CC[C@@]12CC[C@](O)(C(F)(F)F)C[C@H]1CCCc1cc3c(cnn3-c3ccc(S(C)(=O)=O)cc3)cc12` [Example 168, (3R,4aR,12bR)-12b-ethyl-9-(4-(methylsulfonyl)phenyl)-3-(trifluoromethyl)-1,2,3,4,4a,5,6,7,9,12b-decahydrobenzo[6,7]cyclohepta[1,2-f]indazol-3-ol], the IC50 (in assay [1]; with IL-6 (Homo sapiens)) was less than 100 nM throughout.
For `CC[C@]12CC[C@@](O)(C(F)(F)F)C[C@@H]1CCCc1cc3c(cnn3-c3ccc(S(C)(=O)=O)cc3)cc12` [Example 169, (3S,4aS,12bS)-12b-ethyl-9-(4-(methylsulfonyl)phenyl)-3-(trifluoromethyl)-1,2,3,4,4a,5,6,7,9,12b-decahydrobenzo[6,7]cyclohepta[1,2-f]indazol-3-ol], the results for the IC50 (in assay [1]; with IL-6 (Homo sapiens)) were 100 to 1000 nM and 1000 to 10000 nM, respectively.
For `CC[C@]12CC[C@@](OCC(N)=O)(C(F)(F)F)C[C@@H]1CCCc1cc3c(cnn3-c3ccc(F)cc3)cc12` [Example 171, 2-(((3S,4aS,12bS)-12b-Ethyl-9-(4-fluorophenyl)-3-(trifluoromethyl)-1,2,3,4,4a,5,6,7,9,12b-decahydrobenzo[6,7]cyclohepta[1,2-f]indazol-3-yl)oxy)acetamide], in that order: less than 100 nM and less than 100 nM.
For `CC[C@]12CC[C@@](OCC(=O)O)(C(F)(F)F)C[C@@H]1CCCc1cc3c(cnn3-c3ccc(F)cc3)cc12` [Example 172, 2-(((3S,4aS,12bS)-12b-ethyl-9-(4-fluorophenyl)-3-(trifluoromethyl)-1,2,3,4,4a,5,6,7,9,12b-decahydrobenzo[6,7]cyclohepta[1,2-f]indazol-3-yl)oxy)acetic acid], in that order: less than 100 nM and more than 10000 nM.
With “(2S,3R,4aS,12bS)-12b-ethyl-9-(4-fluorophenyl)-3-(trifluoromethyl)-1,2,3,4,4a,5,6,7,9,12b-decahydrobenzo[6,7]cyclohepta[1,2-f]indazole-2,3-diol [Example 120]”, the values for the IC50 (in assay [1]; in the assay on IL-6) were less than 100 nM and 100 to 1000 nM, respectively.
